Structures are written as SMILES.

Holding throughout (type): in vivo
Assay [1] has as its system leukocyte cell (CD45+ cells). As to the kind of experiment: Mouse air pouch model of MSU-induced gout: leukocyte cell density in exudate by flow cytometry. As to conditions: for AVERAGE VALUES (normalized leukocyte cell density): Example 4, Table 2, topical paste 100 mg/mouse (5 mg actives total) 15 h prior to MSU, exudate 5 h after MSU; for INHIBITION RATE (leukocytes): Example 4, Table 2, vs blank control, topical paste 100 mg/mouse (5 mg actives total) 15 h prior to MSU. The text has this:
(§1) Mouse Air pouch model: this mouse model may be referenced to the methods and the experimental details as in the published article “Role of S100A8 and S100A9 in neutrophil recruitment in response to monosodium urate monohydrate crystals in the air-pouch model of acute gouty arthritis”, Arthritis Rheum 2003 August, 48(8):2310-20. The full content of such document as a whole is incorporated by reference herein and made a part of this specification.
(§2) Before the experiment, the mice are shaved to remove back hair. At day 0 sterile filtered air (2 ml/per mouse) is injected through 0.22 μm microfilter to the back of each mouse subcutaneously, so that a pseudosynovial cavity is formed in each mouse. At day 3, an air booster (3 ml/mouse) is again given to each mouse, so that the air pouch is maintained round. Later, the mice are weighed and grouped so that the average weight of the mice in each group is about the same. At day 6 monosodium urate (MSU) crystal suspension (5 mg in 2 ml/per mouse) is injected into the air pouch. Topical application of the paste (100 mg paste/per mouse) is administrated 15 hours prior to MSU stimulation. At a specific time (5 hours) after the injection of MSU, the mice were euthanized with an excess of carbon dioxide, 2 ml PBS per mouse is injected into the air pouch, and the air pouch is carefully cut to collect the exudate. The collected exudate is subjected to the centrifugation at 1,000 rpm, 4° C. for 5 minutes, and the supernatant is then placed in a 96-well plate and stored at −20° C. An ELISA kit (purchased from R&D Systems) is used to analyze the contents of IL-1β and IL-6 in the exudate. The precipitate is resuspended and reacted with 1 ml red blood cell lysis buffer (RBC lysis buffer) for one minute to remove the red blood cells, followed by adding 1 ml PBS to terminate the reaction, centrifuged at 1,000 rpm, 25° C. for 5 minutes, and the supernatant is discarded. The precipitate is then resuspended in 1 ml PBS as the cell suspension and the cell suspension is filtered by filter membrane (BD Falcon 100 μm Nylon filter strainer) and the filtered cell suspension is dispensed into several tubes (0.25 ml/tube) for subsequent cell counting or for labelling with various differentiation antigen markers (such as cluster of differentiation (CD) markers). The flow cytometry is used for cell counting of the various cells.
(§3) In order to investigate the anti-gout efficacy of AG02-RA1 and AG04-RA1, either used alone or in combination, the experiments are performed to test AG02-RA1 alone, AG04-RA1 alone and the combination (s) of AG02-RA1:AG04-RA1 in the ratio of 50:50 (Composition Nos. 1, 2 and 3 as shown in Table 1). […]
(In general: In flow cytometry, cells or beads pass a laser one at a time.)

Assay [2] relates to neutrophil cell (CD45+/Ly6G+ cells). As to the kind of experiment: Mouse air pouch model of MSU-induced gout: neutrophil cell density in exudate by flow cytometry. As to conditions: for AVERAGE VALUES (neutrophil cell density): Example 4, Table 3, topical paste 100 mg/mouse (5 mg actives total) 15 h prior to MSU, exudate 5 h after MSU; for INHIBITION RATE (neutrophils): Example 4, Table 3, vs blank control, topical paste 100 mg/mouse (5 mg actives total).
From the text: as §1, §2, §3

Assay [3] concerns interleukin-1β (mIL-1β). As to the kind of experiment: Mouse air pouch model of MSU-induced gout: IL-1β in exudate by ELISA. Conditions: Example 4, FIG. 3; topical paste 100 mg/mouse (5 mg actives total) 15 h prior to MSU; exudate 5 h after MSU.
From the text: as §1
(§4) Before the experiment, the mice are shaved to remove back hair. At day 0 sterile filtered air (2 ml/per mouse) is injected through 0.22 μm microfilter to the back of each mouse subcutaneously, so that a pseudosynovial cavity is formed in each mouse. At day 3, an air booster (3 ml/mouse) is again given to each mouse, so that the air pouch is maintained round. Later, the mice are weighed and grouped so that the average weight of the mice in each group is about the same. At day 6 monosodium urate (MSU) crystal suspension (5 mg in 2 ml/per mouse) is injected into the air pouch. Topical application of the paste (100 mg paste/per mouse) is administrated 15 hours prior to MSU stimulation. At a specific time (5 hours) after the injection of MSU, the mice were euthanized with an excess of carbon dioxide, 2 ml PBS per mouse is injected into the air pouch, and the air pouch is carefully cut to collect the exudate. […]

The subject of assay [4] is interleukin-6 (mIL-6). As to the kind of experiment: Mouse air pouch model of MSU-induced gout: IL-6 in exudate by ELISA. As to conditions: Example 4, FIG. 4; topical paste 100 mg/mouse (5 mg actives total) 15 h prior to MSU; exudate 5 h after MSU.
From the text: as §1, §4
For orientation: ELISA stands for enzyme-linked immunosorbent assay.

On to `C=C1C(=O)OC2/C=C(\C)CC3C=C(CC/C=C(\C)CCC12)C(=O)O3` (stereo not shown) [AG02-RA1, 3,7,11,15(17)-cembratetraene-16,2:19,6-diolide-3484-37-5(3E,12E)-3,12-dimethyl-8-methylene-6,18-dioxa-tricyclo[14.2.1.0.5,9]nonadeca-3,12,16(19)-triene-7,17-dione], for which, in assay [1], the “AVERAGE VALUES (normalized leukocyte cell density)” value was 1609 cells*10^3/ml and the “INHIBITION RATE (leukocytes)” value is −100%. For the same compound, in assay [2], the “AVERAGE VALUES (neutrophil cell density)” value was 133 cells*10^3/ml and the “INHIBITION RATE (neutrophils)” value was determined as 63%.

As for `CC(=O)OCC=Cc1ccc(OC(C)=O)cc1` [AG04-RA1, 4-(3-acetoxy-propenyl)-phenyl acetate], in assay [1], the “AVERAGE VALUES (normalized leukocyte cell density)” value is given as 670 cells*10^3/ml and the “INHIBITION RATE (leukocytes)” value turned out to be 17%. Besides, in assay [2], the “AVERAGE VALUES (neutrophil cell density)” value is recorded as 205 cells*10^3/ml and the “INHIBITION RATE (neutrophils)” value turned out to be 43%. Moreover, in assay [3], the “inhibition rate of interleukin-1β secretion amount” value is given as more than 50%. The “inhibition rate of interleukin-6 secretion amount” value in assay [4] is given as more than 50%.
